Source: patent US10023538B2, “Compounds, compositions and associated methods comprising 3-aryl quinolines” (Oregon Health & Science University, priority 2012, dated 2018)
Where two headings read alike, the source gives them in different places.

Experiments:
[1] = system: P. falciparum strain 7G8; experiment: Antiplasmodial fluorescence-based SyBr Green assay, strain 7G8; assay type: cell-based, Plasmodium falciparum
Protocol: (§1) The IC50 values listed in Table 1 were determined by the fluorescence-based SyBr Green assay described in Smilkstein (Smilkstein M, Antimicrob Agents Chemother 48, 1803-1806 (2004)). Values are the mean of at least two experiments, each performed in triplicate. […] NT=not tested.

[2] = system: P. falciparum strain D6; experiment: Antiplasmodial fluorescence-based SyBr Green assay, strain D6; assay type: cell-based, Plasmodium falciparum
Protocol: as §1

[3] = system: P. falciparum strain Dd2; experiment: Antiplasmodial fluorescence-based SyBr Green assay, strain Dd2; assay type: cell-based, Plasmodium falciparum
Protocol: as §1

[4] = system: P. falciparum strain Tm90.C2B; experiment: Antiplasmodial activity against strain Tm90.C2B; assay type: cell-based, Plasmodium falciparum
Protocol: as §1
Furthermore, Compound 1 was evaluated against the strain Tm90.C2B.

[5] = system: P. yoelii; experiment: In vivo efficacy, P. yoelii mouse model of malaria (Strain K model); design: species or system female CF1 mice; settings: P. yoelii / CF1 mice
Protocol: The efficacy of Compound 1 in vivo using a P. yoelii mouse model of malaria (Strain K model) was studied. Female CF1 mice were inoculated intravenously with 1-2 million infected red blood cells obtained from infected donor animals. Infected cells were collected then randomly sorted into groups of four mice on Day 0. Drug administration began on Day 1. […] Both drugs were administered daily by gavage as the dihydrochloride salt dissolved in 100 μl of water for Days, 1, 2, 3, and 4. Blood films were prepared on Day 5 (the day after the final drug dose), fixed in methanol, stained with Giemsa, and viewed microscopically to assess parasitemia.

[6] = system: P. falciparum strains; experiment: Antiplasmodial IC50 across P. falciparum strains (average / range); assay type: cell-based, Plasmodium falciparum
Protocol: as §1

[7] = target: hERG potassium channel (Homo sapiens, UniProt Q12809); experiment: hERG channel inhibition, QPatch HT automatic parallel patch clamp; assay type: cell-based; settings: hERG current expressed in mammalian cells, room temperature, tested at 1, 4, 12 μM in duplicate
[8] = Cytotoxicity vs. murine splenic lymphocytes; assay type: cell-based; settings: mouse
[9] = Heme binding affinity in solution (UV/visible titration, NMR); settings: 20 mM phosphate buffer, pH 7.0, 25° C.; titration and NMR
Protocol: The binding affinity of Compound 1 and heme in solution was assessed as described by Kelly (Kelly, J X et al, Antimicrob Agents Chemother 46, 144-150 (2002); Kelly J X et al, Mol Biochem Parasitol 123, 47-54 (2002)). This assay correlates heme binding affinity and the mode of binding (i.e., binding to heme monomer or dimer) to intrinsic antimalarial activity in vitro and in vivo.
Association constants for heme-drug complexes were determined with all titrations conducted under aqueous conditions in 20 mM phosphate buffer, at pH 7.0 and 25° C. Titrations with compounds were performed by successive addition of aliquots of a 1 mM stock solution to a 10 μM heme solution at constant pH. All UV/visible spectral data was analyzed digitally with absorbance readings and concentrations corrected for dilution effects. The resulting titration curves were analyzed with Hill plot (Cantor and Schimmel, Biophysical Chemistry, W H Freeman and Co, New York, 1980) and non-linear curve fitting methods (Connors, Chemical Kinetics, VCH Publishers, New York, 1990). Titration curves were fit to the most accurate binding isotherm and stoichiometry.
Heme:drug interaction was assessed by NMR. NMR investigations involving Compound 1 binding to heme were performed as described in Kelly (Kelly, et al, supra).

[10] = Plasmodium falciparum, P. falciparum 7G8, multidrug resistant, mean of at least two experiments in triplicate, read-out: IC50 Values (nM) Strain 7G8
[11] = Plasmodium falciparum, D6; read-out: IC50 Values (nM) Strain D6
[12] = Plasmodium falciparum, P. falciparum Dd2, multidrug resistant, mean of at least two experiments in triplicate, read-out: IC50 Values (nM) Strain Dd2
[13] = Plasmodium falciparum, P. falciparum Tm90.C2B, multidrug and atovaquone resistant, unit inferred, read-out: IC50 value against strain Tm90.C2B
[14] = Plasmodium falciparum, 7G8, read-out: IC50 Values (nM) Strain 7G8
[15] = Plasmodium falciparum, D6, read-out: IC50 Values (nM) Strain D6
[16] = Plasmodium falciparum, DD2, read-out: IC50 Values (nM) Strain Dd2
[17] = P. falciparum 7G8, multidrug resistant, mean of at least two experiments in triplicate, read-out: IC50 Values (nM) Strain 7G8
[18] = P. falciparum D6, chloroquine sensitive; mean of at least two experiments in triplicate; read-out: IC50 Values (nM) Strain D6
[19] = P. falciparum Dd2, multidrug resistant, mean of at least two experiments in triplicate, read-out: IC50 Values (nM) Strain Dd2

Sequence of hERG potassium channel (Q12809 whole entry): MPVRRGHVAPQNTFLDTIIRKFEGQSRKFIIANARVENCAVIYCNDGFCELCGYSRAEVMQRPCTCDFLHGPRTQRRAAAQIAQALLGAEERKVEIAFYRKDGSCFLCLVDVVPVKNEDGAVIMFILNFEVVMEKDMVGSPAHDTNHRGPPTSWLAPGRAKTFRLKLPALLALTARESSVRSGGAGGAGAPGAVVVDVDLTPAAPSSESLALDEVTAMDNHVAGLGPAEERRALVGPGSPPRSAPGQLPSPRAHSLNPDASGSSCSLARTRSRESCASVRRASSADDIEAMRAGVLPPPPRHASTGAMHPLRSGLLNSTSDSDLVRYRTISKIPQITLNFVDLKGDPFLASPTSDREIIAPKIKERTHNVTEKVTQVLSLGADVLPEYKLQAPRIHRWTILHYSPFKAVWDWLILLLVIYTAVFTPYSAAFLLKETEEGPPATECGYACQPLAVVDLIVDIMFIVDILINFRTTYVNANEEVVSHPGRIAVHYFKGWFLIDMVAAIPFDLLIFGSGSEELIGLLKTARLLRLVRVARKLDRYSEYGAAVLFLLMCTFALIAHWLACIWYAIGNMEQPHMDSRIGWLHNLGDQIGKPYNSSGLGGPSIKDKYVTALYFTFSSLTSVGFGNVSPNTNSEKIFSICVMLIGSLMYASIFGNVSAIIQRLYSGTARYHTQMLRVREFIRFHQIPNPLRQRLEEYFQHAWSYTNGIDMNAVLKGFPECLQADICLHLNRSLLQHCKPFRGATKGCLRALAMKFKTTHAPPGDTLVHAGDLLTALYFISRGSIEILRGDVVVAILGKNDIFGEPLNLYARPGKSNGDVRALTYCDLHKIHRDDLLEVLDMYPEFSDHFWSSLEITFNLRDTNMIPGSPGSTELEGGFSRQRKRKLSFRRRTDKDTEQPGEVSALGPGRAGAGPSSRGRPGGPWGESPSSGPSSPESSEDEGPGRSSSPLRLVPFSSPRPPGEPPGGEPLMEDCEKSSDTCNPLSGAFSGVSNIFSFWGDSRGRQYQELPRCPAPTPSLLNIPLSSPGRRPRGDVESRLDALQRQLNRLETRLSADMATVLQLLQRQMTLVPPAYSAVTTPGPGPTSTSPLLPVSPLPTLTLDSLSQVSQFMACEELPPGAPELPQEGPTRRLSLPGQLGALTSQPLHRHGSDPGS

Structure (SMILES)	IC50 [1, 10] [nM]	IC50 [2, 11] [nM]	IC50 [3, 12] [nM]	other results
O=C1C(O)=C([C@H]2CC[C@H](c3ccc(Cl)cc3)CC2)C(=O)c2ccccc21 [Atovaquone, reference compound]	0.1	0.1	0.1	IC50 [4, 13]: 7700 nM
CCN(CC)CCCC(C)Nc1ccnc2cc(Cl)ccc12 (stereo not shown) [Chloroquine, reference compound]	–	–	–	IC50 [1, 14]: 78 nM; Cure of animals ([5]; at dosages as high as 64 mg/kg/day): did not cure any of the animals; IC50 [2, 15]: 9.2 nM; IC50 [3, 16]: 120 nM; IC50 ([4]; Plasmodium falciparum, TM90, read-out: IC50 value against strain Tm90.C2B): 106 nM
CC(C)(C)NCCCNc1c(-c2ccc(OC(F)(F)F)cc2)cnc2cc(Cl)ccc12 [Compound 1, N1-(tert-butyl)-N3-(7-chloro-3-(4-(trifluoromethoxy)phenyl)-quinolin-4-yl)-propane-1,3-diamine]	1.3	0.9	1.4	ED50 ([5]; gavage daily Days 1-4, parasitemia Day 5, drugs given as salts): 0.25 mg/kg/day; Cure of animals ([5]; at 16 and 64 mg/kg/day): cured all animals; IC50 ([6]; Plasmodium falciparum, average over strains, read-out: Avg IC50 values vs P. falciparum strains): 1.2 nM; IC50 [7]: 4000 nM; IC50 [8]: 4980 nM; Affinity for free heme [9]: strong affinity for free heme; IC50 [4, 13]: 1.3 nM
CC(C)(C)NCCCNc1c(-c2ccc(Cl)cc2)cnc2cc(Cl)ccc12 [Compound 2]	5.8	8	15	–
CC(C)(C)NCCCNc1c(-c2ccccc2)cnc2cc(Cl)ccc12 [Compound 3]	6.4	8.7	17	–
CC(C)(C)NCCCNc1c(-c2ccc(C(F)(F)F)cc2)cnc2cc(Cl)ccc12 [Compound 4]	9.7	4.8	11.9	–
CC(C)(C)NCCCNc1c(-c2ccc(C(F)(F)F)nc2)cnc2cc(Cl)ccc12 [Compound 5]	132	55.2	89	–
CC(C)(C)NCCCNc1c(-c2ccc(Oc3ccc(OC(F)(F)F)cc3)cc2)cnc2cc(Cl)ccc12 [Compound 6]	1.6	2.3	3.3	–
CC(C)(C)NCCCNc1c(-c2ccc(-c3ccccc3)cc2)cnc2cc(Cl)ccc12 [Compound 7]	1.4	0.9	2.9	–
CC(C)(C)NCCCNc1c(-c2ccc(-c3ccc(OC(F)(F)F)cc3)cc2)cnc2cc(Cl)ccc12 [Compound 8]	–	–	–	IC50 [1, 17]: 8.3 nM; IC50 [2, 18]: 5.3 nM; IC50 [3, 19]: 5.9 nM
CC(C)(C)NCCCNc1c(-c2ccc(F)cc2)cnc2cc(Cl)ccc12 [Compound 10]	–	–	–	IC50 [1, 17]: 32.8 nM; IC50 [2, 18]: 13.1 nM; IC50 [3, 19]: 11.7 nM
COc1ccc(-c2cnc3cc(Cl)ccc3c2NCCCNC(C)(C)C)cc1 [Compound 11]	20.6	9.5	11.7	–
CN(C)c1ccc(-c2cnc3cc(Cl)ccc3c2NCCCNC(C)(C)C)cc1 [Compound 12]	11.7	5.1	7	–
CC(C)(C)NCCCNc1c(-c2ccc(OC(F)F)cc2)cnc2cc(Cl)ccc12 [Compound 13]	5.6	2.4	4.9	–
CC(C)(C)NCCCNc1c(-c2ccc(N3CCOCC3)cc2)cnc2cc(Cl)ccc12 [Compound 14]	8.2	4.4	6.7	–
CC(C)(C)NCCCNc1c(-c2ccc(CN3CCOCC3)cc2)cnc2cc(Cl)ccc12 [Compound 15]	–	–	–	IC50 [1, 17]: 0.9 nM; IC50 [2, 18]: 0.8 nM; IC50 [3, 19]: 0.9 nM
CC(C)(C)NCCCNc1c(-c2ccc(Br)cc2)cnc2cc(Cl)ccc12 [Compound 16]	–	–	–	IC50 [1, 17]: 2.5 nM; IC50 [2, 18]: < 2.5 nM; IC50 [3, 19]: < 2.5 nM
CCN(CC)CCCNc1c(-c2ccc(OC(F)(F)F)cc2)cnc2cc(Cl)ccc12 [Compound 24]	–	–	–	IC50 [1, 17]: 8.5 nM; IC50 [2, 18]: 3.4 nM; IC50 [3, 19]: 4.4 nM
CC(C)(C)NCCNc1c(-c2ccc(OC(F)(F)F)cc2)cnc2cc(Cl)ccc12 [Compound 26]	–	–	–	IC50 [1, 17]: 4.5 nM; IC50 [2, 18]: 0.6 nM; IC50 [3, 19]: 4.9 nM
CCN(CC)CCCC(C)Nc1c2ccc(Cl)cc2nc2ccc(OC)cc12 (stereo not shown) [Quinacrine, reference compound]	–	–	–	IC50 [1, 14]: 9 nM; IC50 [2, 15]: 5 nM; IC50 [3, 16]: 10 nM
CCN(CC)CCCC(C)Nc1c(C)cnc2cc(Cl)ccc12 (stereo not shown) [Sontochin, reference compound]	–	–	–	IC50 [1, 17]: 20 nM; IC50 ([6]; range over Table 1 strains, read-out: IC50 values against the drug resistant strains of P. falciparum (range)): 8 to 20 nM; IC50 [2, 18]: 8 nM; IC50 [3, 19]: 19 nM; IC50 ([4]; P. falciparum Tm90.C2B, multidrug and atovaquone resistant, unit inferred, read-out: IC50 value against strain Tm90.C2B): 19.1 nM

The next lines start with results.

IC50 [1, 10] [nM]	IC50 [2, 11] [nM]	IC50 [3, 12] [nM]	Structure (SMILES)	other results
26.3	13.5	21.8	CC(C)(C)NCCCNc1c(-c2ccc(C#N)cc2)cnc2cc(Cl)ccc12 [Compound 17]	–
< 2.5	< 2.5	< 2.5	CC(C)(C)NCCCNc1c(-c2cccc(OC(F)(F)F)c2)cnc2cc(Cl)ccc12 [Compound 18]	–
< 2.5	0.7	1.8	FC(F)(F)Oc1ccc(-c2cnc3cc(Cl)ccc3c2NCCC2CCCCN2)cc1 (stereo not shown) [Compound 22]	–
93	35	80	CCN(CC)CCNc1c(-c2ccc(OC(F)(F)F)cc2)cnc2cc(Cl)ccc12 [Compound 23]	–
11.1	3.5	7.8	CCN(CC)CCCC(C)Nc1c(-c2ccc(OC(F)(F)F)cc2)cnc2cc(Cl)ccc12 (stereo not shown) [Compound 25]	–
30	19	87	C=C[C@H]1C[N@@]2CC[C@H]1C[C@H]2[C@H](O)c1ccnc2ccc(OC)cc12 [Quinine, reference compound]	IC50 [4, 13]: 96 nM
